Assay in all cases: MIC, agar dilution test (Isosensitest medium), Denley multipoint inoculator
Assay type in all cases: cell-based

Assay [1] has as its system Klebsiella 8085. The following applies: strain Klebsiella 8085. From the text:
(§1) Agar dilution test (Isosensitest medium); Denley multipoint inoculator

Assay [2] has as its system E. coli T 7. The following applies: Escherichia coli, T7, strain E. coli T 7.
Text: as §1

The test system of assay [3] is E. coli A 261. Particulars: Escherichia coli, A261, strain E. coli A 261.
Text: as §1

In assay [4] the test system is E. coli Neumann. The following applies: Escherichia coli, strain E. coli Neumann.
Text: as §1

Each structure is given as a SMILES string. Values after ≈ are worked out from the molar mass of the structure shown. Some results are limits rather than exact numbers.

Regarding `CC1(n2cc(C(=O)O)c(=O)c3cc(F)c(N4CCNCC4)cc32)CC1` [Example 1, 6-fluoro-1,4-dihydro-1-(1-methylcyclopropyl)-4-oxo-7-(1-piperazinyl)-3-quinolinecarboxylic acid], the MIC in assay [1] is 0.03 mg/L (≈ 0.0869 µM); in assay [2], not above 0.015 mg/L; in assay [3] it was not above 0.015 mg/L; in assay [4] it was 0.06 mg/L (≈ 0.174 µM).
Take `CC1CN(c2cc3c(cc2F)c(=O)c(C(=O)O)cn3C2(C)CC2)CCN1` (stereo not drawn) [Example 3]: the MIC in assay [1] amounted to 0.06 mg/L (≈ 0.167 µM); in assay [2] it was 0.03 mg/L (≈ 0.0835 µM); in assay [3] it was 0.03 mg/L (≈ 0.0835 µM); in assay [4], 0.06 mg/L (≈ 0.167 µM).
On to `CCn1cc(C(=O)O)c(=O)c2cc(F)c(N3CCNCC3)cc21` [Norfloxacin, reference compound], for which the minimum inhibitory concentration (MIC) in assay [1] amounted to 0.125 mg/L (≈ 0.391 µM); in assay [2], 0.06 mg/L (≈ 0.188 µM); in assay [3], 0.03 mg/L (≈ 0.0939 µM); in assay [4], 0.06 mg/L (≈ 0.188 µM).

Source of the values: patent US4705788A, “Novel antibacterial 7-amino-1(substituted cyclopropyl)-1,4-dihydro-4-oxo-3-quinolinecarboxylic acids” (Bayer Aktiengesellschaft, priority 1985, dated 1987).
